Type in all cases: biochemical, thale cress
Common to all, as to details: control = 100%

The target of one assay is T1, PYR1 (Arabidopsis thaliana, UniProt O49686).
T1 construct: 6xHis (N); made in house; host or cells: Escherichia coli BL21-codonplus(DE3)-RIPL (PYL); BL21(DE3)pLysS (HAB1)
T1 sequence (O49686 1-191): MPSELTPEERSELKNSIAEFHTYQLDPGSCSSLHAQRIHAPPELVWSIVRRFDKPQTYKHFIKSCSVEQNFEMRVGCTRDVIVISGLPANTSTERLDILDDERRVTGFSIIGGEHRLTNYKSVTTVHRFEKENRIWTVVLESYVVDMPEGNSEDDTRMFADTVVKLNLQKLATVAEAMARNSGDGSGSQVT
The experiment in a line: Protein dephosphorylation enzyme activity test, PYR1. How it is done: (§1) A plasmid (pGex-2T-GST-HAB1 or pET28-6×His-PYL) encoded with PYR/PYL/RCAR proteins (PYL, abscisic acid receptor) or protein dephosphorylation enzyme HAB1 of thale cress was transformed to Escherichia coli (HAB1:BL21(DE3)pLysS, PYL:BL21-codonplus(DE3)-RIPL). Isopropyl-β-thiogalactopyranoside was added to the culture broth, which had been subjected to pre-culture (30° C., 180 rpm, 15 hours) and main culture (30° C., 180 rpm, 4 hours), and the protein-expressed (16° C., 150 rpm, 18 hours) crude enzyme solution was purified using FPLC thereby preparing the recombined PYL (PYR1, PYL1-6, PYL8-10) and HAB1. β-Mercaptoethanol, a manganese chloride aqueous solution, HAB1, PYL, a solution of the sample in dimethylsulfoxide and ultrapure water were sequentially added to a 96-well plate, allowed to stand at 22° C. for 30 minutes. Subsequently p-nitrophenylphosphate, which is the artificial substrate of HAB1, was added thereto to start the reaction, and the plate was placed in a microplate reader (TECAN, Infinite™ N200 NanoQuant). The absorbance at 405 nm due to p-nitrophenol, which is the hydrolysate of p-nitrophenylphosphate, was measured 3 minutes later from the reaction initiation, and HAB1 activity was calculated by the following formula (2). Note that the fraction to which only dimethylsulfoxide was added was considered to be the control and the activity thereof was defined as 100%. […] HAB1 specific activity (%)=Absorbance when sample was added/Absorbance of control×100 (2)

For another assay, the target named is T2, PYL8 (Arabidopsis thaliana, UniProt Q9FGM1).
T2 construct: 6xHis (N); made in house; host or cells: Escherichia coli BL21-codonplus(DE3)-RIPL (PYL); BL21(DE3)pLysS (HAB1)
T2 sequence (Q9FGM1 1-188): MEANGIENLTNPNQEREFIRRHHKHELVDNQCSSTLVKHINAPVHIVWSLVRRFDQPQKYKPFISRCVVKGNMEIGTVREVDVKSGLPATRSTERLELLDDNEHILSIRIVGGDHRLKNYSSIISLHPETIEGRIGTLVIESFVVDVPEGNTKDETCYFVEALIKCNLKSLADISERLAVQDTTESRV
Put plainly: Protein dephosphorylation enzyme activity test, PYL8. On the procedure: as §1

The next assay deals with T3, PYL5 (Arabidopsis thaliana, UniProt Q9FLB1).
T3 construct: 6xHis (N); made in house; host or cells: Escherichia coli BL21-codonplus(DE3)-RIPL (PYL); BL21(DE3)pLysS (HAB1)
T3 sequence (Q9FLB1 1-203): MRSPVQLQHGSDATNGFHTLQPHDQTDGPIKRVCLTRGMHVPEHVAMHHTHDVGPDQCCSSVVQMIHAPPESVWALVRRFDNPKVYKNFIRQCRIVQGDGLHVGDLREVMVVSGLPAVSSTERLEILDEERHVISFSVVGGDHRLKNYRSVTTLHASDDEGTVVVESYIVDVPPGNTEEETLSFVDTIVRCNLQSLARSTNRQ
The experiment in a line: Protein dephosphorylation enzyme activity test, PYL5. On the procedure:
as §1

For another assay, the target named is T4, PYL10 (Arabidopsis thaliana, UniProt Q8H1R0).
T4 construct: 6xHis (N); made in house; host or cells: Escherichia coli BL21-codonplus(DE3)-RIPL (PYL); BL21(DE3)pLysS (HAB1)
T4 sequence (Q8H1R0 1-183): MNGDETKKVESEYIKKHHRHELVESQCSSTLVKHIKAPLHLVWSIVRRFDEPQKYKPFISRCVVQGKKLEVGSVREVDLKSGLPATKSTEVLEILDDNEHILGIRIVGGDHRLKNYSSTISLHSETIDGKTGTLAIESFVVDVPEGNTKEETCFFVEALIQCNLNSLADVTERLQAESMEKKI
The experiment in a line: Protein dephosphorylation enzyme activity test, PYL10. On the procedure:
as §1

The target of the next assay is T5, PYL4 (Arabidopsis thaliana, UniProt O80920).
T5 construct: 6xHis (N); made in house; host or cells: Escherichia coli BL21-codonplus(DE3)-RIPL (PYL); BL21(DE3)pLysS (HAB1)
T5 sequence (O80920 1-207): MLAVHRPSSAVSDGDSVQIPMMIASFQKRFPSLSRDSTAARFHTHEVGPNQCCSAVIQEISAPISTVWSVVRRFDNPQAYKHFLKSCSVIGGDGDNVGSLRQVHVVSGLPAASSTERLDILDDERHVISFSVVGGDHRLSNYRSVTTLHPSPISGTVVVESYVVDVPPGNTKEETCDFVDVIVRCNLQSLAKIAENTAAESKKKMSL
The experiment in a line: Protein dephosphorylation enzyme activity test, PYL4. On the procedure: as §1

A further assay concerns the target T6, PYL1 (Arabidopsis thaliana, UniProt Q8VZS8).
T6 construct: 6xHis (N); made in house; host or cells: Escherichia coli BL21-codonplus(DE3)-RIPL (PYL); BL21(DE3)pLysS (HAB1)
T6 sequence (Q8VZS8 1-221): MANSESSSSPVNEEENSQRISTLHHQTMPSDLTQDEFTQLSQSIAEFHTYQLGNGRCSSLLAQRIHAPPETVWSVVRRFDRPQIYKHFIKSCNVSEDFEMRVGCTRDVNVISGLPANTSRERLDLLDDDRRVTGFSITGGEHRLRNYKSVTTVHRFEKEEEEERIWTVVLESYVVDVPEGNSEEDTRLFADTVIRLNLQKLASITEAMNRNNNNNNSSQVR
The experiment in a line: Protein dephosphorylation enzyme activity test, PYL1. How it is done: as §1

The next assay deals with T7, PYL9 (Arabidopsis thaliana, UniProt Q84MC7).
T7 construct: 6xHis (N); made in house; host or cells: Escherichia coli BL21-codonplus(DE3)-RIPL (PYL); BL21(DE3)pLysS (HAB1)
T7 sequence (Q84MC7 1-187): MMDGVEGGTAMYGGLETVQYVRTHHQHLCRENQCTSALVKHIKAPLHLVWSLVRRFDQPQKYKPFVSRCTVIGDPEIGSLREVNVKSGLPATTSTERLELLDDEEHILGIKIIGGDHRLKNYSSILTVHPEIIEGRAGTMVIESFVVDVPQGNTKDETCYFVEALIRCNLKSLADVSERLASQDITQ
Put plainly: Protein dephosphorylation enzyme activity test, PYL9. How it is done:
as §1

Turning to `CC1=C[C@@H](OCC#Cc2ccc(C)cc2)CC(C)(C)[C@@]1(O)/C=C/C(C)=C\C(=O)O` [Example 7], the “HAB1 Specific activity (%) PYR1” value at PYR1 (ABA + compound) amounted to 62.6%; on PYR1 (sample alone) it was 95.7%. Moreover, the entries for the “HAB1 Specific activity (%) PYL8” value at PYL8 (ABA + compound) and on PYL8 (sample alone) were 98.7% and 98.5%, respectively. In addition, the results for the “HAB1 Specific activity (%) PYL5” value on PYL5 (ABA + compound) and at PYL5 (sample alone) were 74.6% and 85.5%, respectively. The “HAB1 Specific activity (%) PYL10” value on PYL10 (ABA + compound) is reported as 82.5%; on PYL10 (sample alone), 99.0%. Moreover, the figures for the “HAB1 Specific activity (%) PYL4” value on PYL4 (ABA + compound) and at PYL4 (sample alone) were 101% and 119%, respectively. The figures for the “HAB1 Specific activity (%) PYL1” value at PYL1 (ABA + compound) and at PYL1 (sample alone) were 87.7% and 136%, respectively.
Take `CC1=CC(=O)CC(C)(C)[C@@]1(O)/C=C/C(C)=C\C(=O)O` [ABA, abscisic acid]: the “HAB1 Specific activity (%) PYR1” value at PYR1 (sample alone) is 18.6%. Besides, the “HAB1 Specific activity (%) PYL8” value at PYL8 (sample alone) was found to be 13.9%. Besides, the “HAB1 Specific activity (%) PYL5” value on PYL5 (sample alone) came to 15.5%. Moreover, the “HAB1 Specific activity (%) PYL9” value at PYL9 (sample alone) amounted to 31%. Besides, the “HAB1 Specific activity (%) PYL10” value at PYL10 (sample alone) stood at 16.2%. Also, on PYL4 (sample alone), the “HAB1 Specific activity (%) PYL4” value is reported as 18.2%. Besides, the “HAB1 Specific activity (%) PYL1” value at PYL1 (sample alone) came to 18.6%.
`CC1=C[C@@H](OCC#Cc2ccccc2)CC(C)(C)[C@@]1(O)/C=C/C(C)=C\C(=O)O` [Example 1, (2Z,4E)-5-((1S,4S)-1-hydroxy-2,6,6-trimethyl-4-((3-phenylprop-2-yn-1-yl)oxy)cyclohex-2-en-1-yl)-3-methylpenta-2,4-dienoic acid]: the “HAB1 Specific activity (%) PYR1” value at PYR1 (ABA + compound) turned out to be 49%; on PYR1 (sample alone), 99.6%. Also, the “HAB1 Specific activity (%) PYL8” value is given as 76.9% on PYL8 (ABA + compound) and 105% on PYL8 (sample alone). In addition, the “HAB1 Specific activity (%) PYL5” value at PYL5 (ABA + compound) is 87%; on PYL5 (sample alone) it was 85.8%. For the same compound, the figures for the “HAB1 Specific activity (%) PYL9” value at PYL9 (ABA + compound) and at PYL9 (sample alone) were 90% and 111%, respectively. Further, the “HAB1 Specific activity (%) PYL10” value at PYL10 (ABA + compound) stood at 90.7%; at PYL10 (sample alone) it was 93.7%. For the same compound, the “HAB1 Specific activity (%) PYL4” value at PYL4 (sample alone) was found to be 108%. Also, the “HAB1 Specific activity (%) PYL1” value on PYL1 (ABA + compound) is listed as 55.6%; on PYL1 (sample alone), 98.1%.

For the origin of these results see US10125095B2, “Abscisic acid derivative” (NATIONAL UNIVERSITY CORPORATION SHIZUOKA UNIVERSITY, priority 2014, dated 2018).
